Values of other authors, collected in patent US9526803B2, “Diagnostic chewing gum for pathogens” (Julius-Maximilians-Universitaet Wuerzburg, priority 2012, dated 2016).
Counter-ions that a name gives are not always drawn.

What was measured:
human tongue = conditions: average human
gustatory system = conditions: reference for calibration of volunteers; bitter value 10,000 = 1 g in 10,000 mL water barely recognized as bitter

Row | Structure (SMILES) | concentration sensed down to (taste recognition threshold) (human tongue) [mM] | bitter value (gustatory system)
1 | C=C[C@H]1C[N@@]2CC[C@H]1C[C@H]2[C@H](O)c1ccnc2ccc(OC)cc12 [Quinine sulfate] | 0.0004 | –
2 | C=C[C@H]1C[N@@]2CC[C@H]1C[C@H]2[C@H](O)c1ccnc2ccc(OC)cc12 [quinine-HCl] | – | 200,000
3 | O=C1NS(=O)(=O)c2ccccc21 [saccharin] | 0.02 | –
